Assay in all cases: inhibition of tumour cell growth, NCI panel, 48 h
Experiment [1] relates to A549 NSCLC.
Experiment [2] has as its system CAKI-1 renal.
Experiment [3] deals with HCT-116 colon.
Experiment [4] concerns HS 578T breast.
Experiment [5] has as its system IGROV1 ovarian.
Experiment [6] concerns LOX IMVI melanoma.
Experiment [7] concerns OVCAR-3 ovarian.
Experiment [8] relates to OVCAR-4 ovarian.

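Results reflect a 48-hour exposure of cells in 96-well plates to compound at five concentrations. GI50 is the concentration that inhibits growth by half. The concentration for full growth arrest is given as TGI.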

`CCN(Cc1cccc(C)c1)c1ccc(CO)c(Cl)c1`: the GI50 is 4.77 µM in experiment [1]; 1310 nM in experiment [2]; 203 nM in experiment [3]; 15200 nM in experiment [4]; 152 nM in experiment [5]; 13200 nM in experiment [6]. For the same compound, the GI50 in experiment [7] is 1500 nM; in experiment [8], 618 nM. The TGI in experiment [1] came out at 20.7 µM; in experiment [2] it was 14.7 µM; in experiment [3], 10.7 µM; in experiment [4], 37.7 µM; in experiment [5], 1.18 µM; in experiment [6] it was 26.6 µM. The TGI in experiment [7] amounted to 8.77 µM; in experiment [8] it was 8.22 µM.

For the compound `Cn1ccnc1C(=O)/C=C/c1ccc(CC(=O)Nc2cc(F)c(F)c(F)c2)cc1`, the GI50 in experiment [1] was 1.57 µM; in experiment [2], 2270 nM; in experiment [3], 1220 nM; in experiment [4], 10800 nM; in experiment [5], 1400 nM; in experiment [6], 1030 nM. Moreover, the GI50 is 1360 nM in experiment [7] and 2250 nM in experiment [8]. Further, the TGI was 20.2 µM in experiment [1]; 7.54 µM in experiment [2]; 4.42 µM in experiment [3]; above 25 µM in experiment [4]; 8.22 µM in experiment [5]; 3.79 µM in experiment [6]. For the same compound, the TGI in experiment [7] was 4.44 µM; in experiment [8], above 25 µM.

Turning to `CCN(CC)c1ccc(/C=C2/NC(=O)NC2=O)cc1`, the GI50 is 9.9 µM in experiment [1]; 6190 nM in experiment [2]; 3650 nM in experiment [3]; 1230 nM in experiment [4]; 4820 nM in experiment [5]; 9730 nM in experiment [6]. Besides, the GI50 is 2410 nM in experiment [7] and 22600 nM in experiment [8]. Also, the TGI in experiment [1] was above 100 µM; in experiment [2] it was above 100 µM; in experiment [3], above 100 µM; in experiment [4], above 28 µM; in experiment [5], above 27.6 µM; in experiment [6], above 100 µM. Further, the results for the TGI in experiment [7] and in experiment [8] were 7.18 µM and above 100 µM, respectively.

Take `c1ccc2c(Nc3ccc4c(c3)OCO4)c3ccoc3nc2c1`: the GI50 in experiment [1] was 6.96 µM; in experiment [2], 12300 nM; in experiment [3], 14700 nM; in experiment [4], above 100000 nM; in experiment [5], 31500 nM; in experiment [6], 17900 nM. Also, the GI50 in experiment [7] is 15500 nM; in experiment [8], 29400 nM. The TGI was 35.8 µM in experiment [1]; 33.3 µM in experiment [2]; 37.3 µM in experiment [3]; above 100 µM in experiment [4]; above 100 µM in experiment [5]; 41.7 µM in experiment [6]. In addition, the TGI is 36.6 µM in experiment [7] and above 100 µM in experiment [8].

With `C[C@@H]1CC[C@H]2C(CN(C)CC3=C(C(F)(F)F)O[C@@H]4O[C@@]5(C)CC[C@H]6[C@H](C)CC[C@@H]3[C@@]46OO5)=C(C(F)(F)F)O[C@@H]3O[C@@]4(C)CC[C@@H]1[C@]32OO4`, the GI50 was 1.58 µM in experiment [1]; 3190 nM in experiment [2]; 415 nM in experiment [3]; 2250 nM in experiment [4]; 2300 nM in experiment [5]; 715 nM in experiment [6]. The results for the GI50 in experiment [7] and in experiment [8] were 419 nM and 1120 nM, respectively. Besides, the TGI in experiment [1] is above 45.4 µM; in experiment [2], 18.2 µM; in experiment [3], 32.9 µM; in experiment [5] it was above 23.9 µM; in experiment [6], 1.98 µM; in experiment [7], 12.1 µM. Moreover, in experiment [8], the TGI is 56.6 µM.

As to `Clc1cc(-c2csc(Cl)c2)cs1`, the TGI in experiment [1], in experiment [2], in experiment [3], in experiment [4], in experiment [5] and in experiment [6] was above 100 µM each time. For the same compound, the TGI in experiment [7] and in experiment [8] was above 100 µM throughout.

As to `COc1cc(C2CC(c3cc(Cl)c(C)cc3O)=NN2c2ccc(S(N)(=O)=O)cc2)cc(OC)c1OC` (stereo not given), the GI50 in experiment [1] was 4 µM; in experiment [2], 2550 nM; in experiment [3] it was 1630 nM; in experiment [4], 2210 nM; in experiment [5], 2230 nM; in experiment [6], 2080 nM. Also, the results for the GI50 in experiment [7] and in experiment [8] were 2190 nM and 3470 nM, respectively. Moreover, the TGI in experiment [1] amounted to 15.5 µM; in experiment [2], 16.9 µM; in experiment [3] it was 2.98 µM; in experiment [4], 7.02 µM; in experiment [5] it was 5.54 µM; in experiment [6], 4.28 µM. Further, the values for the TGI in experiment [7] and in experiment [8] were 4.77 µM and above 100 µM, respectively.

With `COc1ccc(C(=O)C(CN(C)C)c2ccccc2)cc1` (stereo not given), the GI50 in experiment [1] is 18.1 µM; in experiment [2] it was 2080 nM; in experiment [3], 707 nM; in experiment [4] it was 1950 nM; in experiment [5], 2180 nM; in experiment [6], 1730 nM. The GI50 in experiment [7] is 1420 nM; in experiment [8], 5340 nM. The TGI in experiment [1] was determined as 96.3 µM; in experiment [2], 7.82 µM; in experiment [3], 1.95 µM; in experiment [4] it was 6.17 µM; in experiment [5], 5.74 µM; in experiment [6], 3.8 µM. Besides, the values for the TGI in experiment [7] and in experiment [8] were 2.89 µM and above 100 µM, respectively.

With `N#CCCCCCn1c2ccccc2c2c3c(c4c5ccccc5[nH]c4c21)C(=O)N(O)C3=O`, the GI50 in experiment [1] is 2.78 µM; in experiment [2], 1850 nM; in experiment [3], 894 nM; in experiment [4], 4770 nM; in experiment [5], 1120 nM; in experiment [6] it was 240 nM. In addition, the results for the GI50 in experiment [7] and in experiment [8] were 1470 nM and 1900 nM, respectively. Also, the TGI was 8.12 µM in experiment [1]; 4.01 µM in experiment [2]; 2.37 µM in experiment [3]; above 100 µM in experiment [4]; 3.89 µM in experiment [5]; 1.44 µM in experiment [6]. For the same compound, the TGI in experiment [7] came to 5.72 µM; in experiment [8] it was 13 µM.

Values taken from PubChem BioAssay (NCI).
